Reference: ChEMBL document CHEMBL1201862, “PubChem BioAssay data set” (2004)
The source made the active and inactive calls.

How the values were obtained:
Prothrombin = Prothrombin (Homo sapiens, UniProt P00734); assay: Thrombin 1536 HTS Dose Response Confirmation. [Related pubchem assays: 1046 (Thrombin 1536 HTS; hits were confirmed in this assay)]; assay type: functional
[1] = T. cruzi growth inhibition in host cells, dose response, cell-based, plate reader, dry powder, set 2 (AID 652275); assay type: functional
[2] = A cytotoxicity screen of small molecule inhibitors of the PhoP region in Salmonella typhi identified in the primary screen. [Related pubchem assays: 1850, 1864, 1985 ]; assay type: functional
[3] = viability inhibitors of stage V gametocytes – luminescence, dose response (AID 1117278); assay type: functional, cell-based;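 note: gametocytes exposed to compound for 24 hours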
[4] = viability loss in human Jurkat cells – cell-based, luminescence, cytotoxicity control for P. falciparum gametocyte viability project, dose response (AID 1117277); assay type: functional;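 note: potency reflects loss of cellular ATP meaning fewer viable cells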
BJ [5] = assay: BJ-TERT-LT-ST fibroblast viability loss – cell-based, RAS-independent, luminescence, dose response (AID 1935); assay type: functional; settings: Homo sapiens;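 note: BJ fibroblasts immortalized with TERT plus LT and ST oncogenes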
Streptococcus = assay: GAS UMAA2166 growth inhibition – luminescence, BacTiterGlo, counter-screen for streptokinase expression inhibitor project, dose response (AID 1915); assay type: functional, organism-based;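 note: potency for reduction of bacterial viability or growth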
BJ [6] = assay: growth inhibition of engineered Ras-driven BJ cells – cell-based, alamar blue fluorescence, cherrypicked samples, dose response (AID 2631); assay type: functional; settings: Homo sapiens;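 note: confirmatory dose-response assay in RAS-dependent BJ fibroblasts engineered with TERT, LT and ST, with cytotoxicity read by fluorescence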
BJ [7] = assay: cells; assay type: functional, cell-based; settings: Homo sapiens
BJ [8] = assay: BJ-TERT fibroblast viability loss – cell-based, RAS-independent, luminescence, dose response (AID 1933); assay type: functional; settings: Homo sapiens
[9] = DRD fibroblast viability loss – cell-based, non-viral oncogenic, luminescence, dose response (AID 1934); assay type: functional; settings: Homo sapiens
[10] = test system: Streptococcus sp. 'group A'; assay: Streptococcus pyogenes SK(-)GAS viability under kanamycin – luminescence, BacTiterGlo, confirmation, counter-screen for streptokinase expression inhibitor project, dose response (AID 1900); assay type: functional, organism-based
[11] = biological target: T1, Calpain-2 catalytic subunit (Sus scrofa, UniProt P43367); assay: m-calpain protease blockers, concentration series – biochemical, fluorogenic peptide substrate, dose response (AID 1420); assay type: functional
T1 sequence (P43367 whole entry): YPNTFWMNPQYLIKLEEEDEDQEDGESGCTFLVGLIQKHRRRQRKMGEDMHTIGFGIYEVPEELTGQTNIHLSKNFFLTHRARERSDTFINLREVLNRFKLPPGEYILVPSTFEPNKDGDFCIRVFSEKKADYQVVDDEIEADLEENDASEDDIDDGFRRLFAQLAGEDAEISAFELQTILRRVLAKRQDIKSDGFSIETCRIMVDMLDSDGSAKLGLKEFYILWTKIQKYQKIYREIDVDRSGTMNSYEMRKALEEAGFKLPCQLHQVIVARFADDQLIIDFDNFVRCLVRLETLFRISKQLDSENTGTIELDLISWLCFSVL

[12] = OVCAR-3 cell viability loss – plate reader, dry powder samples, PAX8 inhibitor project, dose response (AID 743044); assay type: functional, cell-based
[13] = OVCAR8 cell viability loss – plate reader, dry powder samples, PAX8 project, dose response (AID 743197); assay type: functional, cell-based; settings: OVCAR-8
[14] = A2780 cell killing – plate reader, dry powder samples, cytotoxicity control, dose response (AID 743046); assay type: functional, cell-based
Paired box protein Pax-8 = Paired box protein Pax-8 (Homo sapiens, UniProt Q06710); assay: PAX8 transcriptional activity inhibition in RMG-I – RMG-I cells, luciferase, cherry-pick, dose response (AID 687027); assay type: functional, cell-based;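 note: luciferase reporter driven by Pax8 target thyroperoxidase promoter measured by SteadyGlo luminescence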
[15] = Luminescence Cell-Based Dose Response HTS to Identify Inhibitors of 5'UTR Stem-Loop Driven Prion Protein mRNA Translation in H4 Neuroglioblastoma Cells. [Related pubchem assays: 1827 (Project Summary), 1813 (Primary HTS)]; assay type: functional
[16] = alpha-synuclein stem-loop luciferase translation blockers – H4 neuroglioma cells, luminescence, confirmation (AID 1988); assay type: functional, cell-based
[17] = luciferase reporter signal suppression in cells – H4 neuroglioma cells, luminescence, dose response (AID 1990); assay type: functional, cell-based
[18] = biological target: T2, Mannose-6-phosphate isomerase (Homo sapiens, UniProt P34949); assay: MPI inhibition at elevated mannose 6-phosphate – biochemical, fluorescence intensity, high mannose 6-phosphate, primary screen (AID 1220)
T2 sequence (P34949 whole entry): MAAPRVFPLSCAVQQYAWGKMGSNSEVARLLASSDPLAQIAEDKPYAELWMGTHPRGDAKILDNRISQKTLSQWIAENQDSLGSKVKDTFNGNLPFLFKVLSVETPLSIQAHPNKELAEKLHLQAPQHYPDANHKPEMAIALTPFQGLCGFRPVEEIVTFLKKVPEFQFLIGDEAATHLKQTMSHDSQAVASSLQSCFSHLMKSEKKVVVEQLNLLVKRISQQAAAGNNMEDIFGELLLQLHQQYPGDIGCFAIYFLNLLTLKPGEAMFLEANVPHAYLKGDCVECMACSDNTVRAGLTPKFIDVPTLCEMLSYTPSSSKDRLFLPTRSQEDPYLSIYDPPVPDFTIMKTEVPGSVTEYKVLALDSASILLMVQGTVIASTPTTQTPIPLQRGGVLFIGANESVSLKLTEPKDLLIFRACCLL

[19] = biological target: T3, Polyadenylate-binding protein 1 (Homo sapiens, UniProt P11940); assay: MLLE binding blockers, Cy5 peptide tracer – biochemical, fluorescence polarization, Cy5-PAM2 peptide, secondary, miRNA deadenylation inhibitor project, dose response (AID 602260); assay type: functional; settings: read-out: IC50_Mean
[20] = biological target: T3, Polyadenylate-binding protein 1; assay: MLLE domain peptide-binding blockers, IC50 – biochemical, fluorescence polarization, FITC-PAM2 peptide, dose response (AID 602259); assay type: functional; settings: read-out: IC50_Mean
[21] = biological target: Glucose-6-phosphate 1-dehydrogenase (Homo sapiens, UniProt P11413); assay: inhibition of Homo sapiens G6PD, dose series – biochemical, fluorescence, selectivity assay for P. falciparum G6PD inhibitor project, dose response (AID 504792); assay type: functional
[22] = inhibition of ADAM10 peptide cleavage – biochemical, FRET peptide substrate, recombinant human ADAM10, selectivity assay for ADAM17 exosite inhibitor project, dose response (AID 743259);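 note: ADAM10 enzyme cleaving a FRET peptide substrate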
[23] = biological target: Disintegrin and metalloproteinase domain-containing protein 17 (Homo sapiens, UniProt P78536); assay: exosite inhibitors of ADAM17, dose response, biochemical (AID 743260)
Disintegrin and metalloproteinase domain-containing protein 17, sequence (P78536 whole entry, the tested form may be a part): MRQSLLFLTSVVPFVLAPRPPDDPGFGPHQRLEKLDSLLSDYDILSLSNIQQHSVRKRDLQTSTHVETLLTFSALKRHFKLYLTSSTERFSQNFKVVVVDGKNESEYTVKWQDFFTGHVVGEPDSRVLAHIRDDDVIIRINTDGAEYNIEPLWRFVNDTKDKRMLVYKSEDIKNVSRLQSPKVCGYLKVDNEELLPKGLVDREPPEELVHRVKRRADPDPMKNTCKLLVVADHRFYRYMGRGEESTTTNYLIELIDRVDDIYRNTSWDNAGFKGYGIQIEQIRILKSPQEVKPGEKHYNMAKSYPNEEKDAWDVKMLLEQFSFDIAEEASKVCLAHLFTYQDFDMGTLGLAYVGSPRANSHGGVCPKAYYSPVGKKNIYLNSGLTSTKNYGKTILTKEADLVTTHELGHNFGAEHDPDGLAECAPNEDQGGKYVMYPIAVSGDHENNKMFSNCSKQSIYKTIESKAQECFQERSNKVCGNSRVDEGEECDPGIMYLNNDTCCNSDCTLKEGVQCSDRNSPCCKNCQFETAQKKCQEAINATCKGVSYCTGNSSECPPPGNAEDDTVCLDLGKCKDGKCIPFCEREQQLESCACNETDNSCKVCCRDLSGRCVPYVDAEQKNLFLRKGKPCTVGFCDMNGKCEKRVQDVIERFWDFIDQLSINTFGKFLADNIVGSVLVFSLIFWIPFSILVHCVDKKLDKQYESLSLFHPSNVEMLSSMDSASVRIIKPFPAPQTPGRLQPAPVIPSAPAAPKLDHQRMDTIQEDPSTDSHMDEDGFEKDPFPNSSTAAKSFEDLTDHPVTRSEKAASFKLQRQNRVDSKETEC

T3 sequence (P11940 whole entry, the tested form may be a part): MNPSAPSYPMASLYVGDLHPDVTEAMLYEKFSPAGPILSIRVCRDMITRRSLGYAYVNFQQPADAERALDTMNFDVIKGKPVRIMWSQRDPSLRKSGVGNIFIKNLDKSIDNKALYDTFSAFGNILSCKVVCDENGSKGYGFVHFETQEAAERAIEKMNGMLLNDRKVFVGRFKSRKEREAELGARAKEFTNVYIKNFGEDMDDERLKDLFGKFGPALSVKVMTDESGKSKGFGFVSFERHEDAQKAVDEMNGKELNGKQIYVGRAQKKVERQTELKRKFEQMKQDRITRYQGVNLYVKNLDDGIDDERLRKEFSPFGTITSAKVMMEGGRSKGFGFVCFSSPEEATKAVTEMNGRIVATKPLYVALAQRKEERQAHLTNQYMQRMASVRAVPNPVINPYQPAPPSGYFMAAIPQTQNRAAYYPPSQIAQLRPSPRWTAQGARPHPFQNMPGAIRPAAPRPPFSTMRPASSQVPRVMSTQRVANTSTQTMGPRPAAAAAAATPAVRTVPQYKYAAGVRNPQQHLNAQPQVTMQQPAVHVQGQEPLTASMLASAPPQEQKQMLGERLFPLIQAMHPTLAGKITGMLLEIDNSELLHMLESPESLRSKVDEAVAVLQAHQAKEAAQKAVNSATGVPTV
Paired box protein Pax-8, sequence (Q06710 whole entry): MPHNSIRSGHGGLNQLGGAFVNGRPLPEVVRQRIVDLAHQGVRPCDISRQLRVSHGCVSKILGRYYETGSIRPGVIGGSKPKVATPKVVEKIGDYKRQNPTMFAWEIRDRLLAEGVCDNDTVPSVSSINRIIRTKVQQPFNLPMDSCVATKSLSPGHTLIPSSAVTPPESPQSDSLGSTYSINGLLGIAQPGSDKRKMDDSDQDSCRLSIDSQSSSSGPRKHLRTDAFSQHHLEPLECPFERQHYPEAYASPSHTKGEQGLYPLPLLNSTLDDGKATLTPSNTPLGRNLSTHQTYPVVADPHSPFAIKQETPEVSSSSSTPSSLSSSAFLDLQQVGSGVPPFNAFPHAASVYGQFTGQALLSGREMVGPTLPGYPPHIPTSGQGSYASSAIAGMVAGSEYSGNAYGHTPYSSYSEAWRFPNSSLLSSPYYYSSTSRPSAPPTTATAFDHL
Glucose-6-phosphate 1-dehydrogenase, sequence (P11413 whole entry): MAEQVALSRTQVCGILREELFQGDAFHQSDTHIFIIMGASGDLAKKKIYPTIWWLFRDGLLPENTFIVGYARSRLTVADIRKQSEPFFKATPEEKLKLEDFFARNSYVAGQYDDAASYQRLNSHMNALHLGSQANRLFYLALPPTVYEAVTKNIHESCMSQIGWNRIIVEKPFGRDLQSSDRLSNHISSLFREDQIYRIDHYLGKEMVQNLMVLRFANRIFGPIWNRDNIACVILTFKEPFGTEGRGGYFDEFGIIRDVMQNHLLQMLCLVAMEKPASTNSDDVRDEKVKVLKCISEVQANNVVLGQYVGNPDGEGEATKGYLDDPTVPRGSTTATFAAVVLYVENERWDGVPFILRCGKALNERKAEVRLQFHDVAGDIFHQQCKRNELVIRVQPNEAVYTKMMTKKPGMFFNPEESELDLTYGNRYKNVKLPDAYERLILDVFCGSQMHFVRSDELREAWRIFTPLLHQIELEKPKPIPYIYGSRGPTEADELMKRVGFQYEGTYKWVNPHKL

**Q.** For Cc1ccc(C(=O)N2C(CC(=O)Nc3ccc(Cl)cc3)C(=O)NC3CCCCC32)cc1 (stereo not given), which IC50 (Prothrombin) is on record?
**A.** 3.25 µM (active)

**Q.** With COC[C@H](C)N1C[C@H](C)[C@@H](CN(C)Cc2ccc(Oc3ccccc3)cc2)Oc2c(NC(=O)c3ccncc3)cccc2C1=O as the compound, how does the AC50 [1] read?
**A.** 0.00119 µM (active)

**Q.** Which EC50 [2] does the source give for Cc1nc(-c2ccc(C(=O)N3CCOCC3)cc2)cs1 here?
**A.** > 50 µM (active)

**Q.** What about the IC50 [3] of the same compound?
**A.** > 109 µM (inactive)

**Q.** And the IC50 [4]?
**A.** > 83.3 µM (inactive)

**Q.** For Cc1cccc(NC2=NC(N)=NC(C)(C)N2)c1, which EC50 (BJ [5]) is on record?
**A.** > 150 µM (not active)

**Q.** And the EC50 (Streptococcus)?
**A.** 0.478 µM (active)

**Q.** What about the EC50 (BJ [6]) of the same compound?
**A.** > 133 µM (inactive)

**Q.** And the EC50 (BJ [7])?
**A.** 1.26 µM (inconclusive)

**Q.** And the EC50 (BJ [8])?
**A.** > 150 µM (not active)

**Q.** What about the EC50 [9] of the same compound?
**A.** 1.48 µM (active)

**Q.** What about the EC50 [10] of the same compound?
**A.** < 0.06 µM (active)

**Q.** Which IC50 [11] does the source give for O=C(COc1ccc([N+](=O)[O-])cc1)Nc1ccc(CN2CCOCC2)cc1 here?
**A.** 41.1 µM (not active)

**Q.** For C[C@@H]1CN([C@H](C)CO)C(=O)c2cc(NC(=O)Nc3ccc(C(F)(F)F)cc3)ccc2O[C@@H](C)CCCCO[C@@H]1CN(C)Cc1ccc(Cl)c(Cl)c1, which AC50 [12] is on record?
**A.** 20.7 µM (active)

**Q.** What about the AC50 [13] of the same compound?
**A.** 29.1 µM (active)

**Q.** And the AC50 [14]?
**A.** 39.1 µM (active)

**Q.** And the AC50 (Paired box protein Pax-8)?
**A.** 5 µM (active)

**Q.** With Cn1nnc(CC[N+](C)(C)C)n1 as the compound, how does the IC50 (Prothrombin) read?
**A.** > 50 µM (not active)

**Q.** Which EC50 [15] does the source give for CC(C)[C@]12O[C@H]1[C@@H]1O[C@]13[C@]1(O[C@H]1C[C@H]1C4=C(CC[C@@]13C)C(=O)OC4)[C@@H]2O [TRIPTOLIDE] here?
**A.** < 0.1 µM (active)

**Q.** What about the EC50 (BJ [6]) of the same compound?
**A.** < 0.104 µM (active)

**Q.** And the EC50 [16]?
**A.** < 0.1 µM (active)

**Q.** And the EC50 [17]?
**A.** < 0.1 µM (active)

**Q.** Which IC50 [18] does the source give for Cc1ccccc1/N=C/c1cccc(O)c1O here?
**A.** 11.2 µM (active)

**Q.** Which IC50 [18] does the source give for Cc1ccc(-c2nc(N)s[n+]2-c2ccccc2)cc1 here?
**A.** 4.91 µM (active)

**Q.** And the IC50 [19]?
**A.** > 66 µM (inactive)

**Q.** And the IC50 [20]?
**A.** > 66 µM (inactive)

**Q.** What about the IC50 [21] of the same compound?
**A.** 27.2 µM (inactive)

**Q.** For Cc1cc(C)cc(-n2c(SC(C)C(=O)NCc3ccc4c(c3)OCO4)nc3ccccc3c2=O)c1 (stereo not given), which IC50 [22] is on record?
**A.** 18.3 µM (inactive)

**Q.** And the IC50 [23]?
**A.** > 69.5 µM (inactive)

**Q.** For Cc1cccc(NS(=O)(=O)c2ccc3nc(O)cc(C(=O)OC(C)C(=O)Nc4ccc([N+](=O)[O-])cc4)c3c2)c1 (stereo not given), which IC50 [22] is on record?
**A.** > 69.5 µM (inactive)
